Results: patent US20260042731A1, “(2,4-DICHLOROPHENOXY)ACETIC ACID ANALOGS” (CORTEVA AGRISCIENCE LLC, priority 2022, published 2026)
Where two headings read alike, the source gives them in different places.

Columns and labels:
[1] = tested on: Amaranthus rudis (AMATA), tall water hemp; assay: Postemergence herbicide evaluation, growth of Amaranthus rudis (AMATA); type: in vivo; conditions: Amaranthus tuberculatus, post-emergence, read-out: Ave. AMATA
[2] = tested on: Ambrosia artemisiifolia (AMBEL), common ragweed; assay: Postemergence herbicide evaluation, growth of Ambrosia artemisiifolia (AMBEL); type: in vivo; conditions: Ambrosia artemisiifolia, post-emergence, read-out: AVE. AMBEL
[3] = tested on: Abutilon theophrasti (ABUTH), velvetleaf; assay: Postemergence herbicide evaluation, growth of Abutilon theophrasti (ABUTH); type: in vivo; conditions: Abutilon theophrasti, post-emergence, read-out: AVE. ABUTH
[4] = tested on: Chenopodium album (CHEAL), common lambsquarters; assay: Postemergence herbicide evaluation, growth of Chenopodium album (CHEAL); type: in vivo; conditions: Chenopodium album, post-emergence, read-out: Ave. CHEAL
[5] = tested on: glyphosate resistant Conyza canadensis (L.) (ERICA), horseweed; assay: Postemergence herbicide evaluation, growth of Conyza canadensis (ERICA); type: in vivo; conditions: Erigeron canadensis, post-emergence, read-out: Ave. ERICA
[6] = Volatility of compounds measured by thermogravimetric analysis (TGA); type: physicochemical
[7] = tested on: weeds (ABUTH, AMATA, AMBEL, CHEAL, ERICA); assay: Postemergence herbicide evaluation, overall average % weed control across ABUTH, AMATA, AMBEL, CHEAL, ERICA; type: in vivo; conditions: post-emergence, average over the five weeds, read-out: Overall Ave % Weed Control; for pest or weed control at 280 g/ha: 280 g ae/ha; for pest or weed control at 560 g/ha: 560 g ae/ha

Row | SMILES | pest or weed control at 280 g/ha ([1]; 168 h) | pest or weed control at 560 g/ha ([1]; 168 h) | pest or weed control at 280 g/ha ([1]; 336 h) | pest or weed control at 560 g/ha ([1]; 336 h) | pest or weed control at 280 g/ha ([1]; 504 h) | pest or weed control at 560 g/ha ([1]; 504 h) | pest or weed control at 280 g/ha ([2]; 168 h) | pest or weed control at 560 g/ha ([2]; 168 h) | pest or weed control at 280 g/ha ([2]; 336 h) | pest or weed control at 560 g/ha ([2]; 336 h) | pest or weed control at 280 g/ha ([2]; 504 h) | pest or weed control at 560 g/ha ([2]; 504 h) | pest or weed control at 280 g/ha ([3]; 168 h) | pest or weed control at 560 g/ha ([3]; 168 h) | pest or weed control at 280 g/ha ([3]; 336 h) | pest or weed control at 560 g/ha ([3]; 336 h) | pest or weed control at 280 g/ha ([3]; 504 h) | pest or weed control at 560 g/ha ([3]; 504 h) | pest or weed control at 280 g/ha ([4]; 168 h) | pest or weed control at 560 g/ha ([4]; 168 h) | further results
1 | O=C(COc1ccc(Cl)cc1Cl)n1cnc2ccccc21 [Compound D4, 1-(1H-Benzo[d]imidazol-1-yl)-2-(2,4-dichlorophenoxy)ethanone] | 75% | 83% | 75% | 97% | 75% | 95% | 60% | 68% | 85% | 95% | 85% | 98% | 85% | 93% | 95% | 96% | 98% | 98% | 68% | 65% | pest or weed control at 280 g/ha ([4]; 336 h): 75%; pest or weed control at 560 g/ha ([4]; 336 h): 85%; pest or weed control at 280 g/ha ([4]; 504 h): 83%; pest or weed control at 560 g/ha ([4]; 504 h): 93%; pest or weed control at 280 g/ha ([5]; 168 h): 70%; pest or weed control at 560 g/ha ([5]; 168 h): 70%; pest or weed control at 280 g/ha ([5]; 336 h): 83%; pest or weed control at 560 g/ha ([5]; 336 h): 94%; pest or weed control at 280 g/ha ([5]; 504 h): 88%; pest or weed control at 560 g/ha ([5]; 504 h): 99%; TGA Data (rate of weight loss, volatility) [6]: 0.2 µg/min; pest or weed control at 280 g/ha ([7]; 168 h, 7 DAA): 72%; pest or weed control at 560 g/ha ([7]; 168 h, 7 DAA): 76%; pest or weed control at 280 g/ha ([7]; 336 h, 14 DAA): 83%; pest or weed control at 560 g/ha ([7]; 336 h, 14 DAA): 93%; pest or weed control at 280 g/ha ([7]; 504 h, 21 DAA): 86%; pest or weed control at 560 g/ha ([7]; 504 h, 21 DAA): 97%
2 | O=C(COc1ccc(Cl)cc1Cl)Nc1ccc(Cl)cc1 [Compound D6, N-(4-Chlorophenyl)-2-(2,4-dichlorophenoxy)acetamide] | 68% | 63% | 84% | 70% | 80% | 65% | 58% | 58% | 78% | 68% | 88% | 63% | 50% | 60% | 33% | 58% | 35% | 53% | 60% | 73% | pest or weed control at 280 g/ha ([4]; 336 h): 65%; pest or weed control at 560 g/ha ([4]; 336 h): 75%; pest or weed control at 280 g/ha ([4]; 504 h): 68%; pest or weed control at 560 g/ha ([4]; 504 h): 68%; pest or weed control at 280 g/ha ([5]; 168 h): 65%; pest or weed control at 560 g/ha ([5]; 168 h): 60%; pest or weed control at 280 g/ha ([5]; 336 h): 83%; pest or weed control at 560 g/ha ([5]; 336 h): 78%; pest or weed control at 280 g/ha ([5]; 504 h): 83%; pest or weed control at 560 g/ha ([5]; 504 h): 75%; TGA Data (rate of weight loss, volatility) [6]: 0.02 µg/min; pest or weed control at 280 g/ha ([7]; 168 h, 7 DAA): 60%; pest or weed control at 560 g/ha ([7]; 168 h, 7 DAA): 63%; pest or weed control at 280 g/ha ([7]; 336 h, 14 DAA): 68%; pest or weed control at 560 g/ha ([7]; 336 h, 14 DAA): 70%; pest or weed control at 280 g/ha ([7]; 504 h, 21 DAA): 71%; pest or weed control at 560 g/ha ([7]; 504 h, 21 DAA): 65%
